In patent US6642263B2, “Modulators of Rho C activity” (Iconix Pharmaceuticals Inc., priority 2001, dated 2003):

Molecular target: T1, RhoC (Homo sapiens, UniProt P08134)
T1 construct: cDNAs corresponding to the complete open reading frame of RhoC were PCR amplified; expressed in transfected cells; host or cells: Saccharomyces cerevisiae strain EIS20-2B, pARC35B-derived expression plasmid integrated at LYS2, galactose-induced
Assay: Yeast growth restoration assay (RhoC expressed in yeast, surrogate genetic assay)
Type: cell-based, mammalian
Settings: retested in dilutions from 0.5 μM to 128 μM; 30° C., 40-42 hrs, OD600
Protocol: Compounds of the invention are assayed for activity using any convenient biochemical or biological assay. For example, one can examine compounds for binding to recombinantly-expressed RhoC, assay compounds for their ability to reverse a RhoC-induced phenotype in a heterologous cell (see e.g., WO99/24563, incorporated herein by reference), or using one or more of the experimental protocols described in the references cited herein. […] Compounds were also examined for inhibition of stress fibers, by stimulating NIH 3T3 cells with 10 μM LPA in DMEM+0.2% FBS in the presence of test compounds for 4 hours.
(A) cDNAs corresponding to the complete open reading frame of RhoC were PCR amplified from pooled total cDNAs initially synthesized from placental, fetal brain, and fetal liver poly(A)^+ mRNAs (Clontech Laboratories, Inc.). […]
After PCR, approximately 200 ng of amplified cDNA was cotransformed with approximately 100 ng of vector into yeast and transformants were selected for leucine prototrophy. […] Plasmids from at least three independent transformants were subsequently rescued into the E. coli strain DH5alpha via electroporation, and further characterized by restriction enzyme analysis and DNA sequencing of the RhoC open reading frame. […]

T1 sequence (P08134 whole entry): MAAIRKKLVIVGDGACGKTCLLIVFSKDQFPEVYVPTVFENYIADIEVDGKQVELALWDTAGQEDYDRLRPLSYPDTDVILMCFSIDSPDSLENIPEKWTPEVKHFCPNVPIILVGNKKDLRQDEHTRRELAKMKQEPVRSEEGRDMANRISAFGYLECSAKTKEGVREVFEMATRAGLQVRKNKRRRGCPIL

potency / activity (growth restoration of RhoC-expressing yeast): only weak activity
SMILES: Cc1ccc(NS(=O)(=O)CSc2nc3ccccc3s2)cc1 [2-(4-methylphenylsulfamyl)methylthio-benzo[d]thiazole]
